# Tests used:
# [1] = tested on: Streptococcus pneumoniae; test: Minimum inhibitory concentration against Streptococcus pneumoniae (GC 1894) was determined; type: functional
# [2] = tested on: Streptococcus agalactiae; test: Minimum inhibitory concentration against Streptococcus agalactiae (GC4564) was determined; type: functional
# [3] = Minimum inhibitory concentration against SCN (GC 4547) was determined; type: functional
# [4] = tested on: Streptococcus pneumoniae; test: Minimum inhibitory concentration against Streptococcus pneumoniae (GC 6242) was determined; type: functional
# [5] = tested on: Staphylococcus aureus; test: Minimum inhibitory concentration against Staphylococcus aureus (GC 2216) was determined; type: functional
# [6] = tested on: Enterococcus faecium; test: Minimum inhibitory concentration against Enterococcus faecium (GC 4557) was determined; type: functional
# [7] = tested on: Staphylococcus aureus; test: Minimum inhibitory concentration against Staphylococcus aureus (GC 4542) was determined; type: functional
# [8] = tested on: Streptococcus pyogenes; test: Minimum inhibitory concentration against Streptococcus pyogenes (GC 4563) was determined; type: functional
# [9] = tested on: Escherichia coli; test: Minimum inhibitory concentration against Escherichia coli (GC 2203) was determined; type: functional
# [10] = tested on: Micrococcus luteus; test: Minimum inhibitory concentration against Sarcina lutea (GC 4562) was determined; type: functional
# [11] = tested on: Staphylococcus aureus; test: Minimum inhibitory concentration against Staphylococcus aureus (GC 3051) was determined; type: functional
# [12] = tested on: Staphylococcus aureus; test: Minimum inhibitory concentration against Staphylococcus aureus (GC 4541 was determined; type: functional
# [13] = tested on: Streptococcus pneumoniae; test: Minimum inhibitory concentration against Streptococcus pneumoniae (GC 4565) was determined; type: functional
# [14] = tested on: Enterococcus faecalis; test: Minimum inhibitory concentration against Enterococcus faecalis (GC 6189) was determined; type: functional
# [15] = Minimum inhibitory concentration against SCN (GC 4549) was determined; type: functional
# [16] = Minimum inhibitory concentration against SCN (GC 4548) was determined; type: functional
# [17] = Minimum inhibitory concentration against SCN (GC 4551) was determined; type: functional
# [18] = tested on: Enterococcus faecalis; test: Minimum inhibitory concentration against Enterococcus faecalis (GC 2691) was determined; type: functional
# [19] = tested on: Enterococcus faecalis; test: Minimum inhibitory concentration against Enterococcus faecalis (GC 4555) was determined; type: functional
# [20] = tested on: Enterococcus faecalis; test: Minimum inhibitory concentration against Enterococcus faecalis (GC 2242) was determined; type: functional
# [21] = tested on: Staphylococcus aureus; test: Minimum inhibitory concentration against Staphylococcus aureus (GC 4544) was determined; type: functional
# [22] = tested on: Enterococcus faecalis; test: Minimum inhibitory concentration against Enterococcus faecalis (GC 4554) was determined; type: functional
# [23] = tested on: Escherichia coli; test: Minimum inhibitory concentration against Escherichia coli (GC 4560) was determined; type: functional
# [24] = Minimum inhibitory concentration against SCN (GC 6257) was determined; type: functional
# [25] = tested on: Staphylococcus aureus; test: Minimum inhibitory concentration against Staphylococcus aureus (GC 3066) was determined; type: functional
# [26] = tested on: Enterococcus faecium; test: Minimum inhibitory concentration against Enterococcus faecium (GC 4556) was determined; type: functional
# [27] = tested on: Enterococcus avium; test: Minimum inhibitory concentration against Enterococcus avium (GC 4558) was determined; type: functional
# [28] = tested on: Escherichia coli; test: Minimum inhibitory concentration against Escherichia coli (GC 4564) was determined; type: functional
# [29] = tested on: Staphylococcus aureus; test: Minimum inhibitory concentration against Staphylococcus aureus (GC 1131) was determined; type: functional
# [30] = tested on: Enterococcus faecalis; test: Minimum inhibitory concentration against Enterococcus faecalis (GC 4553) was determined; type: functional
# [31] = tested on: Morganella morganii; test: Minimum inhibitory concentration against Morganella morganii (GC 4381) was determined; type: functional
# [32] = tested on: Staphylococcus aureus; test: Minimum inhibitory concentration against Staphylococcus aureus (GC 4545) was determined; type: functional
# [33] = tested on: Bacillus cereus; test: Minimum inhibitory concentration against Bacillus cereus (GC 4561) was determined; type: functional
# [34] = tested on: Pseudomonas aeruginosa; test: Minimum inhibitory concentration against Pseudomonas aeruginosa (GC 2214) control was determined; type: functional
# [35] = tested on: Enterococcus faecalis; test: Minimum inhibitory concentration against Enterococcus faecalis (GC 3059) was determined; type: functional
# [36] = tested on: Staphylococcus aureus; test: Minimum inhibitory concentration against Staphylococcus aureus (GC 4543) was determined; type: functional
# [37] = tested on: Enterococcus faecium; test: Minimum inhibitory concentration against Enterococcus faecium (GC 2243) was determined; type: functional
# [38] = tested on: Candida albicans; test: Minimum inhibitory concentration against Candida albicans GC 3066 was determined; type: functional
# [39] = tested on: Enterococcus faecalis; test: Minimum inhibitory concentration against Enterococcus faecalis (GC 4552) was determined; type: functional
# [40] = tested on: Staphylococcus haemolyticus; test: Minimum inhibitory concentration against Staphylococcus haemolyticus (GC 4546) was determined
# [41] = tested on: Mus musculus; test: In vivo activity against Staphylococcus aureus smith was determined after iv administration in mice; type: functional
# [42] = tested on: Staphylococcus aureus; test: Minimum inhibitory concentration against Staphylococcus aureus smith; type: functional
smiles,measurement,setting,value
COc1ccc2cc(CO[C@@H]3[C@@H](O[C@H]4[C@H](O)[C@H](O)[C@@H](Oc5ccc(C[C@H]6NC(=O)[C@H]([C@@H](C)c7ccccc7)NC(=O)CNC(=O)[C@H](CO)NC(=O)[C@@H]([C@@H](O)[C@@H]7CN=C(N)N7[C@H]7O[C@H](O)[C@@H](O)[C@H](O)[C@@H]7O)NC(=O)[C@H]([C@@H](O)[C@@H]7CN=C(N)N7)NC6=O)cc5)O[C@@H]4CO)O[C@H](CO)[C@@H](O)[C@@H]3O)ccc2c1,MIC,[1],16 µg/mL
same,MIC,[2],32 µg/mL
same,MIC,[3],64 µg/mL
same,MIC,[4],32 µg/mL
same,MIC,[5],128 µg/mL
same,MIC,[6],32 µg/mL
same,MIC,[7],> 128 µg/mL
same,MIC,[8],64 µg/mL
same,MIC,[9],> 128 µg/mL
same,MIC,[10],16 µg/mL
same,MIC,[11],128 µg/mL
same,MIC,[12],64 µg/mL
same,MIC,[13],32 µg/mL
same,MIC,[14],> 128 µg/mL
same,MIC,[15],64 µg/mL
same,MIC,[16],64 µg/mL
same,MIC,[17],64 µg/mL
same,MIC,[18],> 128 µg/mL
same,MIC,[19],> 128 µg/mL
same,MIC,[20],> 128 µg/mL
same,MIC,[21],128 µg/mL
same,MIC,[22],> 128 µg/mL
same,MIC,[23],32 µg/mL
same,MIC,[24],32 µg/mL
same,MIC,[25],128 µg/mL
same,MIC,[26],> 128 µg/mL
same,MIC,[27],128 µg/mL
same,MIC,[28],> 128 µg/mL
same,MIC,[29],128 µg/mL
same,MIC,[30],128 µg/mL
same,MIC,[31],> 128 µg/mL
same,MIC,[32],128 µg/mL
same,MIC,[33],128 µg/mL
same,MIC,[34],> 128 µg/mL
same,MIC,[35],> 128 µg/mL
same,MIC,[36],64 µg/mL
same,MIC,[37],128 µg/mL
same,MIC,[38],> 64 µg/mL
same,MIC,[39],> 128 µg/mL
same,MIC,[40],64 µg/mL
COc1ccc2cc(COC[C@H]3O[C@H](O[C@H]4[C@H](O)[C@H](O)[C@@H](Oc5ccc(C[C@H]6NC(=O)[C@H]([C@@H](C)c7ccccc7)NC(=O)CNC(=O)[C@H](CO)NC(=O)[C@@H]([C@@H](O)[C@@H]7CN=C(N)N7[C@H]7O[C@H](O)[C@@H](O)[C@H](O)[C@@H]7O)NC(=O)[C@H]([C@@H](O)[C@@H]7CN=C(N)N7)NC6=O)cc5)O[C@@H]4CO)[C@@H](O)[C@@H](O)[C@@H]3O)ccc2c1,MIC,[1],8 µg/mL
same,MIC,[2],0.25 µg/mL
same,MIC,[3],1 µg/mL
same,MIC,[4],≤ 0.06 µg/mL
same,MIC,[5],2 µg/mL
same,MIC,[6],8 µg/mL
same,MIC,[7],2 µg/mL
same,MIC,[8],8 µg/mL
same,MIC,[9],1 µg/mL
same,MIC,[10],2 µg/mL
same,MIC,[11],0.12 µg/mL
same,MIC,[12],1 µg/mL
same,ED50,[41],0.12 mg/kg
same,MIC,[13],0.5 µg/mL
same,MIC,[14],4 µg/mL
same,MIC,[15],1 µg/mL
same,MIC,[16],0.5 µg/mL
same,MIC,[17],2 µg/mL
same,MIC,[18],0.25 µg/mL
same,MIC,[19],8 µg/mL
same,MIC,[20],8 µg/mL
same,MIC,[21],2 µg/mL
same,MIC,[22],8 µg/mL
same,MIC,[23],> 64 µg/mL
same,MIC,[24],0.5 µg/mL
same,MIC,[25],2 µg/mL
same,MIC,[42],1 µg/mL
same,MIC,[26],8 µg/mL
same,MIC,[27],2 µg/mL
same,MIC,[28],> 64 µg/mL
same,MIC,[29],2 µg/mL
same,MIC,[30],8 µg/mL
same,MIC,[31],> 64 µg/mL
same,MIC,[32],1 µg/mL
same,MIC,[33],64 µg/mL
same,MIC,[34],0.12 µg/mL
same,MIC,[35],4 µg/mL
same,MIC,[36],1 µg/mL
same,MIC,[37],8 µg/mL
same,MIC,[38],> 64 µg/mL
same,MIC,[39],8 µg/mL
same,MIC,[40],1 µg/mL

# Reference: ChEMBL document CHEMBL1136657, “Novel ether derivatives of mannopeptimycin glycopeptide antibiotic” (2003)
